# Where no end group is shown, it is not given here.
# Legend:
# [1] = test system: transgenic 2D2 CD4+ T cells; assay: 2D2 T cell proliferation (proliferation dye dilution) in DC co-culture; assay type: cell-based, mouse; conditions: DCs treated with CpG; 17 or 52 peptides per QD; 72 hours
# Protocol: Stained cells were analyzed by flow cytometry.
# [2] = test system: experimental autoimmune encephalomyelitis (EAE); assay: EAE induction, MOG-QD treatment and monitoring; assay type: in vivo, C57BL/6 mice; conditions: single s.c. injection day 2, through day 21
# Protocol: C57BL/6 mice (female, 10-12 weeks) were induced with EAE following a defined protocol from Hooke Labs. Briefly, mice were injected s.c. with an emulsion of MOG and complete Freund's adjuvant (CFA) at the upper and lower back on day 0. Pertussis toxin was also administered intraperitoneally 2 and 24 hours after MOG/CFA injection. Beginning at day 7, mice were weighed to detect changes from day 0 body weight (a symptom of disease) and scored for disease severity with respect to paralysis. A standard clinical scoring rubric was used: 0—no symptoms, 1—limp tail, 2—weakness of hind legs, 3—hind limb paralysis, 4—hind limb paralysis and partial front limb paralysis, 5—moribund.^[6, 7, 15]
# Mice induced with EAE were randomly divided into groups of 8-10 mice each. A control group was left untreated in each experiment. In one experiment, additional groups were treated by s.c. injection at the tailbase with 0.2 nanomoles QDs, 70 μg MOG, 70 μg CTRL peptide on 0.2 nanomoles QDs (100:1), or 70 μg MOG peptide on 0.2 nanomoles QDs (100:1). Similar experiments contained two treatment groups: 14.3 μg MOG on 0.4 nanomoles QDs (17:1) or 73 μg MOG on 0.2 nanomoles QDs (52:1). The final experiment design contained three treatment groups: 70 μg MOG on 0.5 nanomoles QDs (25:1), 70 μg MOG on 0.4 nanomoles QDs (52:1), or 70 μg MOG on 0.3 nanomoles QDs (65:1).
Sequence,2D2 T cell proliferation [1],"disease progression (clinical score) ([2]; 100:1, 70 μg peptide on 0.2 nanomoles QDs or component controls)",disease incidence ([2]; 100:1 or component controls)
HHHHHSAAAAAGISQAVHAAHAEINEAGR (not fully specified) [free CTRL peptide],neither CTRL-QDs nor free CTRL peptide caused proliferation,–,–
HHHHHSAAAAAGMEVGWYRSPFSRVVHLYRNGK [free MOG],equivalent,none of the groups except MOG-QDs caused significant differences in clinical scores,no differences in disease incidence

# — US10898583B2, “Harnessing quantum dots to study, visualize, and promote immune tolerance” (University of Maryland, College Park, priority 2016, dated 2021)
